ChEMBL document CHEMBL1154316, “Structure-activity relationship study of EphB3 receptor tyrosine kinase inhibitors” (Bioorg Med Chem Lett, 2009)

Legend:
[1] = Half life in mouse liver microsomes at 3 uM measured up to 60 mins; format: ADME, Microsome; settings: for half-life at 3 µM: liver microsomes
[2] = Intrinsic clearance in mouse liver microsomes assessed as per mg of protein at 3 uM measured up to 60 mins; format: ADME, Microsome; settings: for microsomal CLint at 3 µM: liver microsomes

Compound | half-life at 3 µM [1] [min] | microsomal CLint at 3 µM [2] [µL/min/mg] | t1/2 ([1]; microsomes, 1 h, 3 µM) [min] | CL ([2]; microsomes, 1 h, 3 µM) [µL/min/mg]
O=C(Nc1ccccc1Cl)c1cnc2ccc(-c3ccccc3)cn12 | 53 | 26 | – | –
O=C(Nc1ccccc1Cl)c1cnn2ccc(-c3ccccc3)cc12 | 27 | 51 | – | –
O=C(Nc1ccccc1Cl)c1cnn2ccc(N3CCCCC3)cc12 | 8.3 | 167 | – | –
O=C(Nc1ccccc1Cl)c1cnc2ccc(N3CCCCC3)cn12 | 20 | 71 | – | –
O=C(Nc1ccccc1Cl)c1cnc2ccc(C3CCNCC3)cn12.O=C(O)C(=O)O | 348 | – | – | –
O=C(Nc1ccccc1Cl)c1cnn2ccccc12 | – | – | 5.3 | 261
O=C(Nc1ccccc1Cl)c1cnc2ccccn12 | 3.8 | 361 | – | –
